Assay results published in EP2506856B1, “AMINOSTEROID COMPOUNDS FOR TOPIC LOCAL APPLICATION FOR SKIN-MUCOSA DECOLONISATION OF STAPHYLOCOCCUS AUREUS” (Assistance Publique Hôpitaux de Marseille, priority 2009, dated 2011).
≈ marks a conversion by molar mass, not a printed value. Where two headings read alike, the source gives them in different places. Values belong to the compound of their own block, whether it stands above or below them.

How the values were obtained:
[1] = system: S. aureus ATCC 25923; experiment: MIC (CMI) determination on reference strain; type: cell-based, Staphylococcus aureus
Procedure: Les composés IIIa et IIIb (selon l'invention) avec R=-(CH2)n1-NHZ et n1=2 à 9 présentent une CMI de 2,5 à 20 µg/ml. Tableau 1 : CMI des dérivés III-a sur S. aureus ATCC 25923
(§1) Le composé III-1 présente la meilleure activité avec une CMI de 1µg/ml pour S. Aureus. Tableau 2 : CMI de la squalamine Ia et des dérivés II-1 et III-1 sur différentes souches de S. aureus.

[2] = system: Staphylococcus aureus (MRSA); experiment: MIC (CMI) determination on MRSA strain; type: cell-based; conditions: read-out: CMI
Procedure: as §1

[3] = system: S. aureus (souche de référence ATCC 25923); experiment: Mouse skin colonisation model, single application of 1% ointment, counts at day 1 and day 2; type: in vivo, souris; conditions: figure 4, from environ 10^6 CFU/ml at J0
Procedure: Afin de tester l'activité in vivo des composés, on a inventé un modèle expérimental de colonisation cutanéo-muqueuse à S. aureus chez la souris. […] Brièvement, 10 µl d'une suspension bactérienne calibrée à 10^8 CFU/ml S. aureus a été appliquée sur la peau préalablement rasée des souris sur deux quadrants différents (figure 3). La colonisation par S. aureus était ensuite suivie quotidiennement pendant 2 jours par écouvillonnage cutané des souris, reprise de l'écouvillon dans 1 ml d'eau stérile et mise en culture de 100 µl sur gélose Chapman à 37°C pendant 24 heures avant énumération des colonies bactériennes.
De la même manière, 10 µl d'une suspension bactérienne calibrée à 10^8 CFU/ml S. aureus a été appliquée sur la peau préalablement rasée d'une série de 4 souris sur deux quadrants différents (figure 3). […] Les quantités de S. aureus, au temps 0 (avant application de la pommade) puis aux jours 1 et 2 (J1 et J2) après application, ont été déterminées par écouvillonnage cutané et mise en culture sur milieu Chapman pour le dénombrement des colonies comme décrit précédemment.

[4] = system: S. aureus (souche de référence ATCC 25923); experiment: Comparative mouse skin colonisation model, single application of ointment, counts at 30 minutes and 1 hour; type: in vivo, souris; conditions: for activité de décolonisation par rapport à la squalamine et analogues: comparative ointments, 30 minutes and 1 hour
Procedure: On a également utilisé à fin de comparaisons une pommade à base de mupirocine (Bactroban®), d'acide fusidique (Fucidine®) ou de vancomycine et vaseline à titre de contrôle dans les mêmes conditions expérimentales. Ainsi, 10 µl d'une suspension bactérienne calibrée à 10^6 CFU/ml S. aureus a été appliquée sur la peau préalablement rasée d'une série de 6 souris sur deux quadrants différents (figure 4). Après 2 heures d'incubation et séchage, la pommade a été appliquée sur un des deux quadrants de peau contre une pommade contenant l'excipient seul sur l'autre quadrant. Les quantités de S. aureus, au temps 0 (avant application de la pommade) puis après 30 minutes et 1 heure d'application, ont été déterminées par écouvillonnage cutané et mise en culture sur milieu Chapman pour le dénombrement des colonies comme décrit précédemment.

[5] = system: différentes souches de S. aureus (y compris des souches résistantes à la méticilline (MRSA)); conditions: different S. aureus strains including MRSA; cited from earlier work
[6] = system: Staphylococcus; conditions: au bout de 24 heures; cited from earlier work
[7] = system: Staphylococcus aureus; conditions: 1% ointment, 2 fois/jour for 48 heures before surgery, fosses nasales; cited from earlier work
[8] = Staphylococcus aureus, ATCC25923, dérivés III-a, R=-(CH2)n1-NH2, S. aureus ATCC 25923, read-out: CMI
[9] = from environ 2.10^4 CFU/ml at t=0, single application of 1% ointment
[10] = Staphylococcus aureus, ATCC25923, read-out: CMI

Structure (SMILES): C[C@H](NCCN)[C@H]1CC[C@H]2[C@@H]3CCC4=C[C@@H](NCCN)CC[C@]4(C)[C@H]3CC[C@]12C [III-a n1=2]
- MIC [1, 8]: 20 µg/mL (≈ 49.7 µM)

Structure (SMILES): C[C@H](NCCCCCN)[C@H]1CC[C@H]2[C@@H]3CCC4=C[C@@H](NCCCCCN)CC[C@]4(C)[C@H]3CC[C@]12C [III-a n1=5]
- MIC [1, 8]: 5 µg/mL (≈ 10.3 µM)

- MIC ([1]; ATCC25923, Staphylococcus aureus ATCC 25923, read-out: CMI): 2 µg/mL (≈ 3.18 µM)
- MIC ([2]; Staphylococcus aureus (MRSA)): 2 µg/mL (≈ 3.18 µM)
Structure (SMILES): CC(C)[C@@H](CC[C@@H](C)[C@H]1CC[C@H]2[C@@H]3[C@H](O)C[C@H]4C[C@@H](NCCCNCCCCN)CC[C@]4(C)[C@H]3CC[C@]12C)OS(=O)(=O)O [Ia, squalamine]
- concentration en bactéries Staphylococcus aureus à J1 [3]: 10^2 CFU/ml
- concentration en bactéries Staphylococcus aureus à J2 [3]: ~10^1 CFU/ml
- diminution du nombre de CFU/ml après 1 heure ([4]; 1% ointment, single application, figure 6): 4 logarithmes
- concentration à t=30 minutes [4, 9]: < 1 CFU/ml
- CMI [5]: 2 µg/mL

Structure (SMILES): C[C@H](NCCCCCCN)[C@H]1CC[C@H]2[C@@H]3CCC4=C[C@@H](NCCCCCCN)CC[C@]4(C)[C@H]3CC[C@]12C [III-a n1=6]
- MIC [1, 8]: 2.5 µg/mL (≈ 4.86 µM)

Structure (SMILES): C[C@H](NCCCCCCCN)[C@H]1CC[C@H]2[C@@H]3CCC4=C[C@@H](NCCCCCCCN)CC[C@]4(C)[C@H]3CC[C@]12C [III-a n1=7]
- MIC [1, 10]: 2.5 µg/mL (≈ 4.6 µM)

Structure (SMILES): C[C@H](NCCCCN)[C@H]1CC[C@H]2[C@@H]3CCC4=C[C@@H](NCCCCN)CC[C@]4(C)[C@H]3CC[C@]12C [III-a n1=4]
- MIC [1, 10]: 5 µg/mL (≈ 10.9 µM)

Structure (SMILES): C[C@H](NCCCCCCCCCN)[C@H]1CC[C@H]2[C@@H]3CCC4=C[C@@H](NCCCCCCCCCN)CC[C@]4(C)[C@H]3CC[C@]12C [III-a n1=9]
- MIC [1, 8]: 5 µg/mL (≈ 8.35 µM)

Structure (SMILES): C/C(=C\C(=O)OCCCCCCCCC(=O)O)C[C@@H]1OC[C@H](C[C@@H]2O[C@H]2[C@@H](C)[C@H](C)O)[C@@H](O)[C@H]1O [mupirocine]
- activité de décolonisation par rapport à la squalamine et analogues [4]: activité nettement moindre et moins rapide
- division de la concentration de bactéries Staphylococcus [6]: 5.10^2 CFU/ml
- décolonisation des bactéries Staphylococcus aureus [7]: 99,9%

Structure (SMILES): C[C@H](NCCCCCCCCN)[C@H]1CC[C@H]2[C@@H]3CCC4=C[C@@H](NCCCCCCCCN)CC[C@]4(C)[C@H]3CC[C@]12C [III-a n1=8]
- MIC [1, 8]: 2.5 µg/mL (≈ 4.38 µM)

Structure (SMILES): CC(=O)O[C@H]1C[C@@]2(C)[C@@H](C[C@@H](O)[C@H]3[C@@]4(C)CC[C@@H](O)[C@@H](C)[C@@H]4CC[C@@]32C)/C1=C(\CCC=C(C)C)C(=O)O [acide fusidique]
- activité de décolonisation par rapport à la squalamine et analogues [4]: activité nettement moindre et moins rapide

Structure (SMILES): C[C@H](NCCCN)[C@H]1CC[C@H]2[C@@H]3CCC4=C[C@@H](NCCCN)CC[C@]4(C)[C@H]3CC[C@]12C [III-a n1=3]
- MIC [1, 8]: 5 µg/mL (≈ 11.6 µM)

Structure (SMILES): CN[C@H](CC(C)C)C(=O)N[C@H]1C(=O)N[C@@H](CC(N)=O)C(=O)N[C@H]2C(=O)N[C@H]3C(=O)N[C@H](C(=O)N[C@H](C(=O)O)c4cc(O)cc(O)c4-c4cc3ccc4O)[C@H](O)c3ccc(c(Cl)c3)Oc3cc2cc(c3O[C@@H]2O[C@H](CO)[C@@H](O)[C@H](O)[C@H]2O[C@H]2C[C@](C)(N)[C@H](O)[C@H](C)O2)Oc2ccc(cc2Cl)[C@H]1O [vancomycine]
- activité de décolonisation par rapport à la squalamine et analogues [4]: activité nettement moindre et moins rapide

Structure (SMILES): CC(C)CCC[C@@H](C)[C@H]1CC[C@H]2[C@@H]3[C@@H](NCCCCN)C=C4C[C@@H](O)CC[C@]4(C)[C@H]3CC[C@]12C [II-1, 7β-(1,4-diaminobutane)-cholest-5-ene-3β-ol]
- MIC [1, 10]: 2 µg/mL (≈ 4.23 µM)
- MIC ([2]; Staphylococcus aureus, MRSA): 2 µg/mL (≈ 4.23 µM)
- décolonisation escomptée en moins de 24 heures ([4]; expected from the 60 minute result): ≥ 99,90%
- concentration au bout de 60 minutes [4, 9]: 55 CFU/ml
- CMI [5]: 2 µg/mL
